From patent US12606561B2, “Substituted pyrazolo[1,5-a][1,3,5]triazines as CDK inhibitors” (QURIENT CO., LTD., priority 2018, dated 2026)

How the values were obtained:
OVCAR-3 = OVCAR-3 viability assay (CellTiter-Glo, 72 hours); assay type: cell-based; conditions: Homo sapiens; OVCAR-3 cells
Procedure, shortened: (§1)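 Cells grown in RPMI-1640 with 10% FBS were seeded at 1×10^4/well (MV4-11), 5×10^3 (OVCAR-3) or 1×10^3 (A2780), then dosed 24 h later with compound at 0.0015 uM to 10 uM, DMSO <0.1%. Viability was read by CellTiter-Glo luminescence after 72 h at 37° C, in duplicate.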

A2780 = A2780 viability assay (CellTiter-Glo, 72 hours); assay type: cell-based; conditions: Homo sapiens; A2780 cells
Procedure, shortened: as §1

CDK1/Cyclin B = biological target: T1, CDK1/Cyclin B (Homo sapiens, UniProt P06493); experiment: Enzymatic assay for CDK1 (LANCE Ultra kinase assay, FRET based); assay type: biochemical; conditions: ATP at Km; read-out: CDK1 enzymatic activity IC50
T1 construct: purchased Invitrogen PR4768C
Procedure, shortened: (§2)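 Inhibition of purified CDK/cyclin complexes was measured with ATP at its Km, using a ULight-labeled peptide substrate. Substrate phosphorylation was detected by FRET with a Europium-labeled anti-phospho-antibody.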

MV4-11 = experiment: Cellular MV4-11 viability assay (CellTiter-Glo, 72 hours); assay type: cell-based; conditions: Homo sapiens; MV4-11 cells
Procedure, shortened: as §1

CDK5/p25 = biological target: T2, CDK5/p25 (Homo sapiens, UniProt Q00535); experiment: Enzymatic assay for CDK5 (LANCE Ultra kinase assay, FRET based); assay type: biochemical; conditions: ATP at Km
T2 construct: purchased Invitrogen PR8543B
Procedure, shortened: (§3)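 Inhibition was measured at ATP Km with 68 nM ULight-MBP peptide and CDK2/Cyclin A ([…]) or CDK5/p25 ([…]), using 8-dose 4-fold compound dilutions from DMSO. Kinase reaction ran 60 min at 23° C, then Eu anti-phospho-MBP plus EDTA were added for another 60 min before the fluorescence read.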

CDK7/Cyclin H/MNAT1 = biological target: T3, CDK7/Cyclin H/MNAT1 (Homo sapiens, UniProt P50613); experiment: Enzymatic assay for CDK7 (LANCE Ultra kinase assay, FRET based); assay type: biochemical; conditions: for IC50: ATP at Km
T3 construct: purchased Invitrogen PR6749B
Procedure, shortened: as §2

CDK2/Cyclin A = biological target: T4, CDK2/Cyclin A (Homo sapiens, UniProt P24941); experiment: Enzymatic assay for CDK2 (LANCE Ultra kinase assay, FRET based); assay type: biochemical; conditions: ATP at Km
T4 construct: purchased Invitrogen PV6290
Procedure, shortened: as §3

H460 = experiment: Cellular H460 viability assay (CellTiter-Glo, 72 hours); assay type: cell-based; conditions: Homo sapiens, NCI-H460; H460 cells
Description: All cell lines were routinely tested for mycoplasma.
To effect of the CDK7 inhibitor to inhibit the growth of target cancer cells, viability assay were conducted a 72 hour time period. Briefly, the candidate cell line was plated in 96 well plate at the following density of cells respectively. 1×10^4 cells/well for MV4-11, 5×10^3 for H460 and OVCAR-3, and 1×10^3 for A2780. […] DMSO solvent without compound served as a control and final DMSO concentration lest than 0.1%. After 72 hours of incubation at 37° C., 5% CO2 incubator, cells were analyzed for the viability using the CellTiter-Glo Luminescent Cell Viability Assay (Promega, Cat #G7570). All viability assays were performed in duplicate and Luminescence was read using an Envision (Perkin Elmer, USA). Data was analyzed using XLfit software.

T2 sequence (Q00535 whole entry): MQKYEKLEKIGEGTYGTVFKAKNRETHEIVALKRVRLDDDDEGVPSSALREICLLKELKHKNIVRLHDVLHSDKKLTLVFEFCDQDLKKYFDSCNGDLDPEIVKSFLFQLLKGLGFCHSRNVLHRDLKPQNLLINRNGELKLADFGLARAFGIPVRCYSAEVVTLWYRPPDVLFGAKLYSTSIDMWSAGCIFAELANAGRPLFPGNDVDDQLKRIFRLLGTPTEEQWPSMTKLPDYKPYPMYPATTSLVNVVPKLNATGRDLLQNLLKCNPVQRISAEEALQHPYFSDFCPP
T2 sequence (Q15078 99-307 partner limits assumed): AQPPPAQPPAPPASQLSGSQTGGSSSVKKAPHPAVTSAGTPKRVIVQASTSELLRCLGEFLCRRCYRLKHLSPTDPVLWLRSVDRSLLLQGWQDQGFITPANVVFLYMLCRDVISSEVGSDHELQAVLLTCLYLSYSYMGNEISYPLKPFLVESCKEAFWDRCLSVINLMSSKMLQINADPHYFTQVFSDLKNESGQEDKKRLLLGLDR
T1 sequence (P06493 whole entry): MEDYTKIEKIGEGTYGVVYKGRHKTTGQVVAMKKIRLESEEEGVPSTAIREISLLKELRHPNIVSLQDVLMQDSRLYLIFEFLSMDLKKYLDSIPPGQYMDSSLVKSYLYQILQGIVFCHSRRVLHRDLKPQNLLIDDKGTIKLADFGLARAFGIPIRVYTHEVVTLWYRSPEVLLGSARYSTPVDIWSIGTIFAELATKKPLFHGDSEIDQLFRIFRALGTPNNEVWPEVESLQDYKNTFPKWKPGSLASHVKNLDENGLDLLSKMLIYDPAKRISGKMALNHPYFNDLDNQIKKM
T1 sequence (P14635 whole entry partner): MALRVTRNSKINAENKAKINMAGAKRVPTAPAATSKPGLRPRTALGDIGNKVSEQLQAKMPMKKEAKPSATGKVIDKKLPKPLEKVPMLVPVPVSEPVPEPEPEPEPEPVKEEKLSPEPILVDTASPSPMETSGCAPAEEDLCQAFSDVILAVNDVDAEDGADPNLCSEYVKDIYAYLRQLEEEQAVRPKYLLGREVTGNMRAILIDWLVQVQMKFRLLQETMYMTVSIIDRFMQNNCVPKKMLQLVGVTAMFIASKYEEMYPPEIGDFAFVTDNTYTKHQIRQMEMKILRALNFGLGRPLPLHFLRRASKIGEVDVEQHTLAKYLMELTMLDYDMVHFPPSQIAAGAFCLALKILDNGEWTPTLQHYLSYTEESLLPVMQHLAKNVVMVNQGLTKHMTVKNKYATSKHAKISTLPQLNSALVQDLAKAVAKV
T3 sequence (P50613 whole entry): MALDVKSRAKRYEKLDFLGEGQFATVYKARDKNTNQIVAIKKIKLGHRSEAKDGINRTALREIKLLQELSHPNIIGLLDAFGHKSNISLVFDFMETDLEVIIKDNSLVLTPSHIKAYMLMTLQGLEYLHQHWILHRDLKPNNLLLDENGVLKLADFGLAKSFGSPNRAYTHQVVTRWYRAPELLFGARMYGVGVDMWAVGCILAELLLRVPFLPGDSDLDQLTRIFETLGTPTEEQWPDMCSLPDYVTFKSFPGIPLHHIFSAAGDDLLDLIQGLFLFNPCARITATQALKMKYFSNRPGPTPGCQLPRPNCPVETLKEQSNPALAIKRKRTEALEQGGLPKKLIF
T3 sequence (P51946 whole entry partner): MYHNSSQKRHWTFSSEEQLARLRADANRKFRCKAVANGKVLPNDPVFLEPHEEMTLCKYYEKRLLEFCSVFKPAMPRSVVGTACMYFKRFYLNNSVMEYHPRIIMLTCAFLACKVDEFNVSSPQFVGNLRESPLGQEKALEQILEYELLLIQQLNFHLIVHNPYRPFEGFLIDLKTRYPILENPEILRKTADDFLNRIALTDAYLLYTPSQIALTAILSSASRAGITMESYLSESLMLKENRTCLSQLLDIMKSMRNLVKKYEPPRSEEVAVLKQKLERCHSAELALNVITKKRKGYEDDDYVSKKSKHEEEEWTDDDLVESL
T3 sequence (P51948 whole entry partner): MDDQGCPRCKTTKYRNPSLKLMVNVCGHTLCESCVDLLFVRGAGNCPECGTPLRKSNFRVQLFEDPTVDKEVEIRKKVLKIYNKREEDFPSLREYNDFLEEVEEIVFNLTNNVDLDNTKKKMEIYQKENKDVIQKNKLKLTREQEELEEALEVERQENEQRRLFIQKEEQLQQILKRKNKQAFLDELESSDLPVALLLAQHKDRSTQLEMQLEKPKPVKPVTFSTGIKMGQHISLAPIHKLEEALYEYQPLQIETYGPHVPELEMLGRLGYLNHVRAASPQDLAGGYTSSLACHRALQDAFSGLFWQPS

SMILES | IC50 (OVCAR-3) | IC50 (A2780) | IC50 (CDK1/Cyclin B) | IC50 (MV4-11) | IC50 (CDK5/p25) | IC50 (CDK7/Cyclin H/MNAT1) | CDK1/CDK7: Selectivity of CDK7 inhibition over CDK1 inhibition (CDK7/Cyclin H/MNAT1) | CDK2/CDK7: Selectivity of CDK7 inhibition over CDK2 inhibition (CDK7/Cyclin H/MNAT1) | CDK5/CDK7: Selectivity of CDK7 inhibition over CDK5 inhibition (CDK7/Cyclin H/MNAT1) | IC50 (CDK2/Cyclin A) | IC50 (H460)
CC(C)c1cnn2c(NCc3ccccc3-c3cc4c(NC(=O)/C=C/CN(C)C)cccc4[nH]3)nc(N3CCC(N)CC3)nc12 [Compound 3] | < 1 µM | < 1 µM | 0.1 to 1 µM | < 1 µM | < 0.1 µM | < 0.1 µM | C (C indicates [fold] ≤ 50) | C (C indicates [fold] ≤ 50) | C (C indicates [fold] ≤ 50) | 0.1 to 1 µM | < 1 µM
C=CC(=O)Nc1cccc(Oc2ccccc2CNc2nc(N3CCC(N)CC3)nc3c(C(C)C)cnn23)c1 [Compound 7] | – | – | > 1 µM | – | > 1 µM | < 0.1 µM | A (A indicates [fold] > 500) | A (A indicates [fold] > 500) | B (B indicates 50 < [fold] ≤ 500) | > 1 µM | < 1 µM
CC(C)c1cnn2c(NCc3ccccc3NC(=O)c3cccc(NC(=O)/C=C/CN(C)C)c3)nc(N3CCC(N)CC3)nc12 [Compound 8] | – | – | > 1 µM | – | 0.1 to 1 µM | < 0.1 µM | A (A indicates [fold] > 500) | B (B indicates 50 < [fold] ≤ 500) | B (B indicates 50 < [fold] ≤ 500) | > 1 µM | < 1 µM
CC(C)c1cnn2c(NCc3ccccc3Oc3ccc(NC(=O)/C=C/CN(C)C)cc3)nc(N3CCC(N)CC3)nc12 [Compound 10] | – | – | > 1 µM | – | 0.1 to 1 µM | < 0.1 µM | B (B indicates 50 < [fold] ≤ 500) | B (B indicates 50 < [fold] ≤ 500) | C (C indicates [fold] ≤ 50) | 0.1 to 1 µM | < 1 µM
CC(C)c1cnn2c(NCc3cccc4ccc(NC(=O)/C=C/CN(C)C)nc34)nc(N3CCC(N)CC3)nc12 [Compound 12] | – | – | > 1 µM | – | 0.1 to 1 µM | < 0.1 µM | A (A indicates [fold] > 500) | B (B indicates 50 < [fold] ≤ 500) | C (C indicates [fold] ≤ 50) | > 1 µM | < 1 µM
C=CC(=O)Nc1cccc(Oc2cccc(CNc3nc(N4CCC(N(C)C)CC4)nc4c(C(C)C)cnn34)c2)c1 [Compound 14] | – | – | > 1 µM | – | 0.1 to 1 µM | < 0.1 µM | A (A indicates [fold] > 500) | B (B indicates 50 < [fold] ≤ 500) | B (B indicates 50 < [fold] ≤ 500) | > 1 µM | < 1 µM
CC(C)c1cnn2c(NCc3cccc(Oc4ccc(Cl)c(NC(=O)/C=C/CN(C)C)c4)c3)nc(N3CCC(N)CC3)nc12 [Compound 15] | – | – | > 1 µM | – | 0.1 to 1 µM | < 0.1 µM | A (A indicates [fold] > 500) | B (B indicates 50 < [fold] ≤ 500) | B (B indicates 50 < [fold] ≤ 500) | 0.1 to 1 µM | < 1 µM
CC(C)c1cnn2c(NCc3ccccc3-n3cc4cccc(NC(=O)/C=C/CN(C)C)c4n3)nc(N3CCC(N)CC3)nc12 [Compound 16] | – | – | > 1 µM | – | 0.1 to 1 µM | < 0.1 µM | B (B indicates 50 < [fold] ≤ 500) | B (B indicates 50 < [fold] ≤ 500) | C (C indicates [fold] ≤ 50) | 0.1 to 1 µM | < 1 µM
CC(C)c1cnn2c(NCc3ccccc3-c3cc4cc(NC(=O)/C=C/CN(C)C)ccc4[nH]3)nc(N3CCC(N)CC3)nc12 [Compound 19] | – | – | 0.1 to 1 µM | – | < 0.1 µM | < 0.1 µM | C (C indicates [fold] ≤ 50) | C (C indicates [fold] ≤ 50) | C (C indicates [fold] ≤ 50) | < 0.1 µM | 1 to 10 µM
CC(C)c1cnn2c(NCc3ccccc3-c3ccc4cccc(NC(=O)/C=C/CN(C)C)c4n3)nc(N3CCC(N)CC3)nc12 [Compound 20] | < 1 µM | < 1 µM | > 1 µM | < 1 µM | 0.1 to 1 µM | < 0.1 µM | B (B indicates 50 < [fold] ≤ 500) | A (A indicates [fold] > 500) | B (B indicates 50 < [fold] ≤ 500) | > 1 µM | < 1 µM
CC(C)c1cnn2c(NCc3cccc(-c4cc5cc(NC(=O)/C=C/CN(C)C)ccc5[nH]4)c3)nc(N3CCC(N)CC3)nc12 [Compound 23] | – | – | > 1 µM | – | 0.1 to 1 µM | < 0.1 µM | B (B indicates 50 < [fold] ≤ 500) | C (C indicates [fold] ≤ 50) | C (C indicates [fold] ≤ 50) | > 1 µM | 1 to 10 µM
CC(C)c1cnn2c(NCc3ccccc3-n3cc4cc(NC(=O)/C=C/CN(C)C)ccc4n3)nc(N3CCC(N)CC3)nc12 [Compound 24] | – | – | 0.1 to 1 µM | – | 0.1 to 1 µM | < 0.1 µM | B (B indicates 50 < [fold] ≤ 500) | C (C indicates [fold] ≤ 50) | C (C indicates [fold] ≤ 50) | 0.1 to 1 µM | 1 to 10 µM
CC(C)c1cnn2c(NCc3ccccc3-c3cc4cccc(NC(=O)/C=C/CN(C)C)c4[nH]3)nc(N3CCC(N)CC3)nc12 [Compound 25] | < 1 µM | < 1 µM | 0.1 to 1 µM | < 1 µM | < 0.1 µM | < 0.1 µM | B (B indicates 50 < [fold] ≤ 500) | C (C indicates [fold] ≤ 50) | C (C indicates [fold] ≤ 50) | 0.1 to 1 µM | < 1 µM
